# Experimental data from patent publication US9980943B2, “Methods of treating muscular dystrophy” (BOARD OF REGENTS OF THE NEVADA SYSTEM OF HIGHER EDUCATION, …, priority 2013, dated 2018).
# pEC50: −log10 of the molar value. Like-named read-outs stand apart in the source and are kept apart here.
# Assays:
# [1] = system: α7 integrin (LacZ reporter in α7βgal+/− myoblasts); assay: Myoblast α7+/LacZ integrin FDG assay (Burkin assay in myoblasts, 96-well); format: cell-based, mouse; details: 96-well; for Burkin Assay in Myoblasts, signal relative to DMSO: α7+/LacZ myoblasts; for Burkin Assay in Myoblasts, value relative to DMSO: SU9516 analogs, N=3-6
# [2] = system: β-galactosidase in CMV-LacZ C2C12 myoblasts; assay: CMV-LacZ secondary screen in C2C12 myoblasts (β-Gal stabilizing assay); format: cell-based, mouse; details: for CMV-LACZ in Myoblasts (β-galactosidase activity relative to DMSO): CMV-LacZ C2C12 myoblasts; for CMV-LACZ in Myoblasts, value relative to DMSO: SU9516 analogs, C2C12 CMV-LacZ, N=2
# From the text: In order to determine compounds that acted to stabilize β-gal in myogenic cells, a CMV-LacZ C2C12 cell line was used in a secondary screen. The EGFP gene from the pEGFP (Clontech) vector was replaced by LACZ PCR product with digests of the vector/PCR product performed using EcoRI (NEB) and NotI (NEB) and ligated using T4 DNA Ligase (NEB) following standard procedures to produce the CMV-LACZ vector. The LACZ gene was generated by PCR from the pBK-RSV (Stratagene) vector using primers LACZ EcoRI F- and LACZ NotI R-. The CMV-LACZ vector was then digested with AfIII (NEB) to linearize the construct, which was then transfected in C2C12 myoblasts using Lipofectamine 2000 (Invitrogen) following the manufacturer's instructions. […] Clonal lines were selected and screened for βgal levels using the myoblast FDG assay.
# The assays were used the original 96-well format and new dose-response curves for myoblasts (N=3-6 replicates for each data point), myotubes (N=3-6 replicates for data point), and CMV-LacZ secondary assay (N=2 replicates for each data point) using concentrations of 0.5 μM, 1 μM, 5 μM, 10 μM, 20 μM, and 40 μM (Tables 9-16).
# [3] = system: α7 integrin (LacZ reporter in α7+/LacZ myotubes); assay: Myotube α7 integrin FDG assay (Burkin assay in myotubes, 96-well); format: cell-based, mouse; details: for Burkin Assay in Myotubes, value relative to DMSO: SU9516 analogs, 96-well, N=3-6; for Burkin Assay in Myotubes, α7 integrin LacZ reporter signal relative to DMSO / pEC50 / MT FOLD INCREASE: myotubes; for pEC50: nonlinear regression of dose-response curves, read-out: EC50 α7+/LacZ MT; for MT FOLD INCREASE: maximum response
# [4] = system: β-galactosidase in CMV-LacZ C2C12 myotubes; assay: CMV-LacZ secondary screen in C2C12 myotubes (β-Gal stabilizing assay); format: cell-based, mouse; details: for CMV-LACZ in Myotubes, signal relative to DMSO: C2C12 CMV-LacZ myotubes, fold relative to DMSO; for CMV-LACZ in Myotubes, value relative to DMSO: SU9516 analogs, C2C12 CMV-LacZ, N=2
# Method in brief: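 β-gal stabilization was measured in C2C12 myoblasts or myotubes stably transfected with a CMV-driven LacZ construct, using the FDG β-gal assay. Compounds were tested in dose-response at 0.5, 1, 5, 10, 20 and 40 μM, with two replicates per point.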
# [5] = system: α7 integrin (LacZ reporter in α7LacZ+/− myoblasts); assay: qHTS of the LOPAC library and MLSMR (online screen, α7LacZ+/− myoblasts); details: for Online Screen Score / Online Screen Fold-change: MLSMR qHTS, myoblasts; for activation at 0.307 µM: read-out: Activity at 0.307 uM [%] **; for activation at 1.53 µM: read-out: Activity at 1.530 uM [%] **; for activation at 7.66 µM: read-out: Activity at 7.660 uM [%] **; for activation at 38.3 µM: read-out: Activity at 38.30uM [%] **
# [6] = Mus musculus, Myoblast, 48 h, read-out: Fit Infinite Activity [%]
# [7] = Mus musculus, Myoblast, read-out: Max Response [%]
smiles,measurement,setting,value
O=C(CSc1nnc(COc2ccc(Br)cc2)o1)NC1CCCCC1 [MLS001215357-01],"Burkin Assay in Myoblasts, signal relative to DMSO",[1]; 0.5 uM,1.037
same,"Burkin Assay in Myoblasts, signal relative to DMSO",[1]; 1 uM,0.93
same,"Burkin Assay in Myoblasts, signal relative to DMSO",[1]; 5 uM,0.8837
same,"Burkin Assay in Myoblasts, signal relative to DMSO",[1]; 10 uM,1.489
same,"Burkin Assay in Myoblasts, signal relative to DMSO",[1]; 20 uM,0.9203
same,"Burkin Assay in Myoblasts, signal relative to DMSO",[1]; 40 uM,0.5327
same,CMV-LACZ in Myoblasts (β-galactosidase activity relative to DMSO),[2]; 0.5 uM,1.1560
same,CMV-LACZ in Myoblasts (β-galactosidase activity relative to DMSO),[2]; 1 uM,1.2686
same,CMV-LACZ in Myoblasts (β-galactosidase activity relative to DMSO),[2]; 5 uM,0.8575
same,CMV-LACZ in Myoblasts (β-galactosidase activity relative to DMSO),[2]; 10 uM,1.0378
same,CMV-LACZ in Myoblasts (β-galactosidase activity relative to DMSO),[2]; 20 uM,1.2467
same,CMV-LACZ in Myoblasts (β-galactosidase activity relative to DMSO),[2]; 40 uM,0.4719
same,"Burkin Assay in Myotubes, α7 integrin LacZ reporter signal relative to DMSO",[3]; 0.5 uM,0.9366
same,"Burkin Assay in Myotubes, α7 integrin LacZ reporter signal relative to DMSO",[3]; 1 uM,0.8137
same,"Burkin Assay in Myotubes, α7 integrin LacZ reporter signal relative to DMSO",[3]; 5 uM,0.9057
same,"Burkin Assay in Myotubes, α7 integrin LacZ reporter signal relative to DMSO",[3]; 10 uM,0.884
same,"Burkin Assay in Myotubes, α7 integrin LacZ reporter signal relative to DMSO",[3]; 20 uM,0.756
same,"Burkin Assay in Myotubes, α7 integrin LacZ reporter signal relative to DMSO",[3]; 40 uM,0.6929
same,"CMV-LACZ in Myotubes, signal relative to DMSO",[4]; 0.5 uM,1.1547
same,"CMV-LACZ in Myotubes, signal relative to DMSO",[4]; 1 uM,1.1400
same,"CMV-LACZ in Myotubes, signal relative to DMSO",[4]; 5 uM,1.1407
same,"CMV-LACZ in Myotubes, signal relative to DMSO",[4]; 10 uM,1.1192
same,"CMV-LACZ in Myotubes, signal relative to DMSO",[4]; 20 uM,1.3622
same,"CMV-LACZ in Myotubes, signal relative to DMSO",[4]; 40 uM,1.0667
O=Nc1c(-c2c(O)[nH]c3ccccc23)[nH]c2ccccc12 [NCGC00015545-02],"Burkin Assay in Myoblasts, value relative to DMSO",[1]; 0.5 uM,1.175
same,"Burkin Assay in Myoblasts, value relative to DMSO",[1]; 1 uM,1.325
same,"Burkin Assay in Myoblasts, value relative to DMSO",[1]; 5 uM,0.596
same,"Burkin Assay in Myoblasts, value relative to DMSO",[1]; 10 uM,0.319
same,"Burkin Assay in Myoblasts, value relative to DMSO",[1]; 20 uM,0.3086
same,"Burkin Assay in Myoblasts, value relative to DMSO",[1]; 40 uM,0.1824
same,"CMV-LACZ in Myoblasts, value relative to DMSO",[2]; 0.5 uM,1.0179
same,"CMV-LACZ in Myoblasts, value relative to DMSO",[2]; 5 uM,0.9440
same,"CMV-LACZ in Myoblasts, value relative to DMSO",[2]; 10 uM,0.8475
same,"CMV-LACZ in Myoblasts, value relative to DMSO",[2]; 20 uM,0.2907
same,"CMV-LACZ in Myoblasts, value relative to DMSO",[2]; 40 uM,0.2480
same,"Burkin Assay in Myotubes, value relative to DMSO",[3]; 0.5 uM,0.913
same,"Burkin Assay in Myotubes, value relative to DMSO",[3]; 1 uM,0.9118
same,"Burkin Assay in Myotubes, value relative to DMSO",[3]; 5 uM,0.6921
same,"Burkin Assay in Myotubes, value relative to DMSO",[3]; 10 uM,0.5516
same,"Burkin Assay in Myotubes, value relative to DMSO",[3]; 20 uM,0.4959
same,"Burkin Assay in Myotubes, value relative to DMSO",[3]; 40 uM,0.3519
same,"CMV-LACZ in Myotubes, value relative to DMSO",[4]; 0.5 uM,0.8627
same,"CMV-LACZ in Myotubes, value relative to DMSO",[4]; 1 uM,0.9536
same,"CMV-LACZ in Myotubes, value relative to DMSO",[4]; 5 uM,0.7586
same,"CMV-LACZ in Myotubes, value relative to DMSO",[4]; 10 uM,0.5058
same,"CMV-LACZ in Myotubes, value relative to DMSO",[4]; 20 uM,0.5490
same,"CMV-LACZ in Myotubes, value relative to DMSO",[4]; 40 uM,0.4770
CN(C)c1ccnc2sc(C(N)=O)c(N)c12 [MLS000532969],Online Screen Score,[5],44
same,pEC50,[3],5.66
Cc1cc(C)c(/C=C2\C(=O)Nc3ccccc32)[nH]1 [NCGC00094381-04],"CMV-LACZ in Myoblasts, value relative to DMSO",[2]; 0.5 uM,1.0763
same,"CMV-LACZ in Myoblasts, value relative to DMSO",[2]; 5 uM,1.1366
same,"CMV-LACZ in Myoblasts, value relative to DMSO",[2]; 10 uM,0.9770
same,"CMV-LACZ in Myoblasts, value relative to DMSO",[2]; 20 uM,0.9330
same,"CMV-LACZ in Myoblasts, value relative to DMSO",[2]; 40 uM,0.9697
same,"CMV-LACZ in Myotubes, value relative to DMSO",[4]; 0.5 uM,1.0845
same,"CMV-LACZ in Myotubes, value relative to DMSO",[4]; 1 uM,1.4927
same,"CMV-LACZ in Myotubes, value relative to DMSO",[4]; 5 uM,1.2849
same,"CMV-LACZ in Myotubes, value relative to DMSO",[4]; 10 uM,1.1010
same,"CMV-LACZ in Myotubes, value relative to DMSO",[4]; 20 uM,3.8710
same,"CMV-LACZ in Myotubes, value relative to DMSO",[4]; 40 uM,8.1220
O=C(Nc1ccc(N2CCN(C(=O)c3ccccc3F)CC2)cc1)c1cncc(Br)c1 [MLS001060533],Online Screen Fold-change,[5],1.9
same,Online Screen Score,[5],42
same,MT FOLD INCREASE,[3],1.5 fold
same,pEC50,[3],5.33
CC1CCCCN1c1ncnc(N)c1[N+](=O)[O-] (stereo not shown) [MLS000683234],Online Screen Fold-change,[5],2.6
same,Online Screen Score,[5],46
same,MT FOLD INCREASE,[3],1.7 fold
same,pEC50,[3],4.57
C[C@H]1CNC(=O)c2c(C(=O)Nc3ccc(CNC(=O)OC(C)(C)C)cc3)ncn21 [MLS003126425],Online Screen Fold-change,[5],1.9
same,Online Screen Score,[5],43
same,MT FOLD INCREASE,[3],2.0 fold
same,pEC50,[3],5.15
COc1cc(Cl)cc(CN2CCC(CCC(=O)NC3CC3)CC2)c1OC [Compound 167],activation at 0.307 µM,"[5]; Mus musculus, Myoblast, 48 h",-38.2%
same,activation at 1.53 µM,"[5]; Mus musculus, Myoblast, 48 h",-33.5%
same,activation at 7.66 µM,"[5]; Mus musculus, Myoblast, 48 h",9.56%
same,activation at 38.3 µM,"[5]; Mus musculus, Myoblast, 48 h",44%
same,Emax,[5]; [6],48.6%
same,Emax,[5]; [7],44%
O=S(=O)(N/C(=N/C1CCCCC1)c1ccccc1F)c1ccccc1 [Compound 156],activation at 0.307 µM,"[5]; Mus musculus, Myoblast, 48 h",0%
same,activation at 1.53 µM,"[5]; Mus musculus, Myoblast, 48 h",0%
same,activation at 7.66 µM,"[5]; Mus musculus, Myoblast, 48 h",22.9%
same,activation at 38.3 µM,"[5]; Mus musculus, Myoblast, 48 h",65.3%
same,Emax,[5]; [6],67.8%
same,EC50,"[5]; Mus musculus, Myoblast, read-out: Fit LogAC50 (converted)",10 µM
same,Emax,[5]; [7],65.3%
CC(=O)Nc1ccc(NC(=O)c2cc(=O)c3cc(C)cc(C)c3o2)cc1 [Compound 159],activation at 0.307 µM,"[5]; Mus musculus, Myoblast, 48 h",-4.25%
same,activation at 1.53 µM,"[5]; Mus musculus, Myoblast, 48 h",-1.91%
same,activation at 7.66 µM,"[5]; Mus musculus, Myoblast, 48 h",17.1%
same,activation at 38.3 µM,"[5]; Mus musculus, Myoblast, 48 h",106%
same,Emax,[5]; [6],107%
same,Emax,[5]; [7],106%
